# Measurements taken from patent publication US20030022926A1, “Method for treating neuropathic pain and pharmaceutical preparation therefor” (priority 2001, published 2003).
# Read-outs that look alike come from different tables or passages of the source.
# Tests used:
# [1] = tested on: mechanical allodynia in rats with partial ligation of sciatic nerve
# From the text: A validated animal model of neuropathic pain was used that results from a partial ligation of one sciatic nerve in rat (Seltzer 1990). Nerve ligation and subsequent edema represents an experimental model for mechanisms operative in both nociceptive nerve pain and pain due to partial deafferentation (Asbury A, Fields H. Pain due to peripheral nerve damage: an hypothesis. Neurology 1984; 34: 1587-1590). This model thereby closely mimics the clinical situation found in several cancerous patients.
# (§1) After Institutional Animal Care Committee approval, adult male Wistar rats (Hanovre, weight 150 -180 g) underwent partial sciatic nerve ligation of the right sciatic nerve as described by Seltzer et al (Seltzer 1990). Briefly, under halothane anesthesia, the right sciatic nerve was exposed at high-thigh level and liberated from surrounding tissues. One third to one half of the nerve was then tightly ligated with silicon-treated silk suture (Prolene 7-0) before those muscle and skin layers were closed. The animals were allowed to recover for four to six weeks, lag of time sufficient to develop neuropathic pain features.
# Mechanical allodynia was assessed by application of calibrated Von Frey filaments (Stoelting, Wood Dale, Ill.), ranging from 1.2 g to 28.8 g.
# The animals were placed on a plastic mesh floor into individual boxes. After accommodation to the environment, the Von Frey filaments were applied vertically to the plantar surface of the ligated hind paw and gently bent 3-4 times over approximately 2 sec. if no response was elicited, a larger filament was applied in the same manner. The filaments were applied in increasing order until a brisk withdrawal or paw flinching occurred, that was considered as a positive response. The filament applications were repeated three times, with five to ten minutes interval between testing. The withdrawal threshold was determined as the mean of the three values.
# (§2) Only the animals which had developed satisfactory Mechanical Allodynia and Thermal Hyperalgesia were used to assess the efficacy of peripheral nerve blockade.
# (§3) The rats were anesthetized with 4% halothane inhaled concentration in 100% oxygen by face mask. An unilateral percutaneous sciatic nerve block was then performed on the right ligated side. A 25-gauge needle was introduced between the greater trochanter and the ischial tuberosity, both landmarks previously localized by palpation, according to the technique reported by Thalhammer (Thalhammer JG, et al Neurologic evaluation of the rat during sciatic nerve block with lidocaine. Anesthesiology. 1995 Apr;82(4):1013-25). Different mixtures of saline and alpha-2-adrenergic agonist were then injected in a total volume of 0.3 ml.
# A single sciatic block (SB) injection of the following drugs was realized: Saline (n=6), Saline and intramuscular (IM) clonidine 30 μg (n=11), Clonidine 15 μg (n=8), Clonidine 3 μg (n=9). The drug used in the study for peripheral nerve block was: clonidine marketed for clinical use (Catapressan®, Boehringer Ingelheim). The drug was diluted in isotonic saline.
# The animals were tested as previously described for both Mechanical Allodynia and Thermal Hyperalgesia at day0 (5 hours after sciatic nerve injection), day 1, day 3, day 7, day 10, day 14 and day 21 post drug injection.
# For Mechanical Allodynia, Paw withdrawal threshold (PWT) values were converted to percent of maximum possible effect (% MPE), according to the formula:
# % MPE=(post-drug infiltration threshold−baseline post-ligation threshold)/(pre-ligation threshold−baseline post-ligation threshold)×100
# Values are expressed as mean±SD. The percent maximum possible effect data were used to calculate the respective ED50 values of clonidine and clonidine combinations using linear regression.
# [2] = tested on: phosphorylated cAMP response element binding protein (pCREB)
# Description: The L4-5 spinal cord segments and the ipsilateral and contralateral sciatic nerve segments at both proximal and mid-thigh levels were removed and postfixed in the same fixative for 3-6 hours. Then all tissues were transferred to 30% sucrose in 0.1 M PB at 40° C. for cryoprotection. The spinal cord segments were cut on a cryostat at a 40 μm thickness. The free-floating sections were collected in PBS. After being pre-treated with 0.3% H 202 and 10% normal goat serum (NGS, Vector Laboratories, Burlingame, Calif.), sections were incubated for 36 hours at 40° C. in a rabbit polyclonal anti-phospho-CREB antibody (1:1,000, New England Biolabs, Beverly, Mass., U.S.A.) diluted in phosphate buffered saline containing 0.3% Triton-×100 (PBS+T) and 3% NGS. Subsequently, the sections were incubated in biotinylated goat anti-rabbit IgG (Vector) and further processed using Elite Vectastain ABC kit (Vector) according to the instructions of the manufacturer. Between each incubation, sections were washed in PBS+T (15 min twice). Finally, the immunoprecipitates were developed by 3,-3′ diaminobenzedine (DAB) and the chromogen was enhanced by the glucose oxidase-nickel-3,-3′ DAB method.
# Images of both ipsilateral and contralateral dorsal horns of nerve injured rats or from the dorsal horn of normal rats were captured at ×250 magnification using a CCD camera. In a given area (235 μm×235 μm), which covered the entire LI to LII in depth and was located in the middle one third of the mediolateral extent of the dorsal horn, the number of pixels occupied by pCREB-IR cells on each side was measured automatically using image analysis software (SigmaScan, Jandel Scientific Inc., San Rafael, Calif., U.S.A.). Values are expressed as mean+SEM. Groups were compared using two-way ANOVA followed by Dunnett's or Fishers LSD test. To compare the mean number of the pixels occupied by pCREB-IR cells between two-side dorsal horn, a paired t-test or one-way ANOVA with Student-Newman-Keuls multiple comparison method was used. P<0.05 was considered significant.
# [3] = tested on: neuropathic pain
# From the text: The patient was then referred to the Pain Clinic to benefit from neuraxial analgesia (either epidural or intrathecal catheter placement). However, long-term spinal catheter is not devoid of side effects, both related to the technique, especially the risk of infection and to the drugs used.
# [4] = tested on: thermal hyperalgesia in rats with partial ligation of sciatic nerve; conditions: ligated side
# From the text: as §1, §2
# as §3, with “Different mixtures of saline and alpha-2-adrenergic agonist were then injected in a total volume of 0.3 ml.” left out
# Values are expressed as mean±SD.
# [5] = Method: as §3
# [6] = ipsilateral and contralateral, compared to saline controls (p<0.001)
# [7] = one week after single peripheral nerve injection at the injury site, 30 mg as printed
smiles,measurement,setting,value
"Clc1cccc(Cl)c1NC1=NCCN1 [clonidine, N-(2,6-dichlorophenyl)-4,5-dihydro-1H-imidazol-2-amine]",PWT values (Paw Withdrawal threshold),"[1]; intramuscular (IM) clonidine 30 μg, D0 (5 h)",2.6 ± 1.8 g
same,PWT values (Paw Withdrawal threshold),"[1]; intramuscular (IM) clonidine 30 μg, D1",7.9 ± 4.2 g
same,PWT values (Paw Withdrawal threshold),"[1]; intramuscular (IM) clonidine 30 μg, D3",4.3 ± 2.8 g
same,PWT values (Paw Withdrawal threshold),"[1]; intramuscular (IM) clonidine 30 μg, D7",5.2 ± 2.8 g
same,PWT values (Paw Withdrawal threshold),"[1]; intramuscular (IM) clonidine 30 μg, D10",3.6 ± 2.3 g
same,PWT values (Paw Withdrawal threshold),"[1]; intramuscular (IM) clonidine 30 μg, D14",2.0 ± 3.3 g
same,PWT values (Paw Withdrawal threshold),"[1]; intramuscular (IM) clonidine 30 μg, D21",3.6 ± 1.4 g
same,"peak effect on mechanical allodynia, day post injection","[1]; peripheral sciatic block 3 to 30 μg, four to six weeks after nerve injury",7 days
same,Maximal effect in alleviating Mechanical Allodynia,"[1]; sciatic block 3 μg, at D1",34.2±5.1 % MPE
same,Maximal effect in alleviating Mechanical Allodynia,"[1]; sciatic block 15 μg, at D3",40.5±6.4 % MPE
same,Maximal effect in alleviating Mechanical Allodynia,"[1]; sciatic block 30 μg, at D7",76.6±9.2 % MPE
same,PWT values (Paw Withdrawal threshold),"[1]; sciatic block (SB) 3 μg, D0 (5 h)",4.7 ± 4 g
same,PWT values (Paw Withdrawal threshold),"[1]; sciatic block (SB) 3 μg, D1",12.0 ± 4 g
same,PWT values (Paw Withdrawal threshold),"[1]; sciatic block (SB) 3 μg, D3",10.3 ± 5 g
same,PWT values (Paw Withdrawal threshold),"[1]; sciatic block (SB) 3 μg, D7",8.2 ± 4 g
same,PWT values (Paw Withdrawal threshold),"[1]; sciatic block (SB) 3 μg, D10",7.0 ± 3 g
same,PWT values (Paw Withdrawal threshold),"[1]; sciatic block (SB) 3 μg, D14",5.0 ± 2 g
same,PWT values (Paw Withdrawal threshold),"[1]; sciatic block (SB) 3 μg, D21",4.3 ± 1 g
same,PWT values (Paw Withdrawal threshold),"[1]; sciatic block (SB) 15 μg, D0 (5 h)",4.8 ± 2 g
same,PWT values (Paw Withdrawal threshold),"[1]; sciatic block (SB) 15 μg, D1",12.6 ± 6 g
same,PWT values (Paw Withdrawal threshold),"[1]; sciatic block (SB) 15 μg, D3",12.9 ± 5 g
same,PWT values (Paw Withdrawal threshold),"[1]; sciatic block (SB) 15 μg, D7",8.8 ± 3 g
same,PWT values (Paw Withdrawal threshold),"[1]; sciatic block (SB) 15 μg, D10",9.7 ± 4 g
same,PWT values (Paw Withdrawal threshold),"[1]; sciatic block (SB) 15 μg, D14",6.4 ± 3 g
same,PWT values (Paw Withdrawal threshold),"[1]; sciatic block (SB) 15 μg, D21",3.7 ± 1 g
same,PWT values (Paw Withdrawal threshold),"[1]; sciatic block (SB) 30 μg, D0 (5 h)",9.3 ± 6 g
same,PWT values (Paw Withdrawal threshold),"[1]; sciatic block (SB) 30 μg, D1",14.7 ± 10 g
same,PWT values (Paw Withdrawal threshold),"[1]; sciatic block (SB) 30 μg, D3",23.7 ± 11 g
same,PWT values (Paw Withdrawal threshold),"[1]; sciatic block (SB) 30 μg, D7",23.0 ± 7 g
same,PWT values (Paw Withdrawal threshold),"[1]; sciatic block (SB) 30 μg, D10",11.9 ± 3 g
same,PWT values (Paw Withdrawal threshold),"[1]; sciatic block (SB) 30 μg, D14",11.4 ± 4 g
same,PWT values (Paw Withdrawal threshold),"[1]; sciatic block (SB) 30 μg, D21",7.8 ± 3 g
same,effect of single peripheral sciatic block on mechanical allodynia (in words),"[1]; single sciatic block, neuropathic rats",significantly alleviated mechanical allodynia
same,maximal antiallodynic effect,"[1]; systemic injection (IM) 30 μg, at day 0 (5 hours post-sciatic blockade)",20.7±5.7 % MPE
same,mean number of pixels in a fixed area occupied by pCREB-IR cells in the dorsal horn,[2]; [6],significantly reduced
same,mean optical density in a fixed area occupied by pCREB-IR cells in the dorsal horn,[2]; [6],significantly reduced
same,increase in pCREB-IR cells in the ipsilateral dorsal horn,[2]; [7],dramatically suppressed
same,number of pCREB-IR cells in the contralateral dorsal horn,[2]; [7],markedly reduced
same,duration of strong alleviation of neuropathic pain after a single femoral block injection,[3]; clonidine alone,more than ten
same,onset of the antihyperalgesic effect,"[3]; clonidine alone, femoral block",four to five
same,efficacy of clonidine alone versus initial mixture,"[3]; femoral block, local anesthetic and steroid withdrawn",as effective as previous combination
same,tolerance on repetitive blocks,[3]; repetitive peripheral nerve blocks in the cancerous patient,without apparition of tolerance
same,effect of peripheral nerve block on thermal hyperalgesia (in words),[4],alleviated the thermal hyperalgesia in a dose-related manner
same,sedation,[5]; after clonidine injection in rats,mild transitory sedation
same,motor blockade or motor deficit,[5]; peripheral sciatic nerve block in rats,did not result into motor blockade or subsequent motor deficit
